Where two headings read alike, the source gives them in different places.
Assays:
Assay type in all cases: cell-based
[1] = biological target: T1, human GLP-1 receptor (GLP-1R) (Homo sapiens, UniProt P43220); test: cAMP assay, human GLP-1R cells
T1 construct: expressed in transfected cells
Summary of the method: (§1)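 Peptide-stimulated cAMP measured by two-step HTRF after a 30 min room-temperature incubation with receptor-expressing cells (hGLP-1R, hGIPR at 1×10^5 cells/ml; hGCGR at 2×10^5 cells/ml). Duplicate dilutions; EC50 from 4-parameter logistic fit of % Delta F.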

[2] = biological target: T2, human glucagon receptor (GCGR) (Homo sapiens, UniProt P47871); test: cAMP assay, human GCGR cells; settings: cAMP assay
T2 construct: expressed in transfected cells
Summary of the method: as §1

[3] = biological target: T3, human glucose-dependent insulinotropic peptide receptor (GIPR) (Homo sapiens, UniProt P48546); test: cAMP assay, human GIPR cells; settings: cAMP assay
T3 construct: expressed in transfected cells
T3 sequence (P48546 22-466): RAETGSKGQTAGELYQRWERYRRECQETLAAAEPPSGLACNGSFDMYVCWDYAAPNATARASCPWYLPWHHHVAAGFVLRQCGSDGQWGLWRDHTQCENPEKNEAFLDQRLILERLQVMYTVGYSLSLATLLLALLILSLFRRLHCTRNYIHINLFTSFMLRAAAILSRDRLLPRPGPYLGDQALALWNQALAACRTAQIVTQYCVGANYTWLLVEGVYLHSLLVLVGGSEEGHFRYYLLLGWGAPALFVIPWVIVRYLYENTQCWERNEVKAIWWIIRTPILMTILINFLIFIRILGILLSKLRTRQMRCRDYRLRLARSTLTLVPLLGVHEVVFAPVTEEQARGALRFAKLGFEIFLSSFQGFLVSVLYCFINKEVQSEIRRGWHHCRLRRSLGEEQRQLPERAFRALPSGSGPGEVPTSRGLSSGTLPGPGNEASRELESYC
Summary of the method: as §1

GLP-1R (INS1e assay) = biological target: T4, GLP-1R (INS1e assay) (Rattus norvegicus, UniProt P32301); test: INS1e assay, cAMP activity at GLP-1R; settings: mono-lipidated peptides
T4 construct: endogenous in cells; host or cells: INS-1E cells
T4 sequence (P32301 22-463): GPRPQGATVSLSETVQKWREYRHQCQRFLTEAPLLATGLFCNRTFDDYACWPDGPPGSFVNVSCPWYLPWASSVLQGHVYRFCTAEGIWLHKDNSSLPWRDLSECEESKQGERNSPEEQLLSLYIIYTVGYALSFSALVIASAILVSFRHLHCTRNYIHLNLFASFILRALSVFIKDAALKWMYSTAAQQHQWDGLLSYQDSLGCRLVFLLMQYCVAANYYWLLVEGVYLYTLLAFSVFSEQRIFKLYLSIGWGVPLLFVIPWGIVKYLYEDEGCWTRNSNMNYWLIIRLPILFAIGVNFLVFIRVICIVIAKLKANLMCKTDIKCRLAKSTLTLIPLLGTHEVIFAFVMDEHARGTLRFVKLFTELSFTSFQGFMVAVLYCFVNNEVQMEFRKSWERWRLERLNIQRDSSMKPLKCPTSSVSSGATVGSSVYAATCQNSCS
Summary of the method: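 cAMP was quantified by two-step HTRF, using anti-cAMP cryptate donor and cAMP-d2 acceptor, each diluted 1/20 in conjugate and lysis buffer. EC50 values of the synthetic peptides were derived from the cAMP readout.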

[4] = cAMP assay, first determination (n1), read-out: Primary assay EC50 GLP-1R n1
[5] = cAMP assay, second determination (n2), read-out: Primary assay EC50 GLP-1R n2
[6] = mean of n1 and n2, read-out: Mean pM GLP-1R
[7] = first determination (n1), read-out: Primary assay EC50 Gluc-R (n1)
[8] = second determination (n2), read-out: Primary assay EC50 Gluc-R (n2)
[9] = first determination (n1), read-out: Primary assay EC50 GIP-R (n1)
[10] = second determination (n2), read-out: Primary assay EC50 GIP-R (n2)
[11] = mean of n1 and n2, read-out: INS1e assay EC50 Mean pM GLP-1R
[12] = replicate n1, read-out: INS1e assay EC50 GLP-1R n1
[13] = replicate n2, read-out: INS1e assay EC50 GLP-1R n2
[14] = Primary assay EC50 Gluc-R (n1), first determination (n1)
[15] = read-out: Primary assay EC50 Gluc-R (n2), second determination (n2)
[16] = Primary assay EC50 GIP-R (n1), first determination (n1)
[17] = read-out: Primary assay EC50 GIP-R (n2), second determination (n2)

T2 sequence (P47871 26-477): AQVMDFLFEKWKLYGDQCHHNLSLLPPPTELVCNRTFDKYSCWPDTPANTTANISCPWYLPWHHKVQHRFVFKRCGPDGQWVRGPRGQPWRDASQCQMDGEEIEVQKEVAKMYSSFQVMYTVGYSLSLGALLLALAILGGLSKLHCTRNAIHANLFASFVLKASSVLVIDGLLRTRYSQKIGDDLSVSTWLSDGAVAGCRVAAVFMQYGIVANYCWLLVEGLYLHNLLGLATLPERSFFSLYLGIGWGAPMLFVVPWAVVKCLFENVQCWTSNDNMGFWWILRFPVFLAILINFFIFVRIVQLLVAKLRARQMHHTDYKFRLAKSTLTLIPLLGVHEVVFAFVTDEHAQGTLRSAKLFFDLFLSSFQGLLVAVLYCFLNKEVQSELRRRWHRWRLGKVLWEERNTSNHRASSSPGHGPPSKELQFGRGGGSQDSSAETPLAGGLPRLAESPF
T1 sequence (P43220 24-463): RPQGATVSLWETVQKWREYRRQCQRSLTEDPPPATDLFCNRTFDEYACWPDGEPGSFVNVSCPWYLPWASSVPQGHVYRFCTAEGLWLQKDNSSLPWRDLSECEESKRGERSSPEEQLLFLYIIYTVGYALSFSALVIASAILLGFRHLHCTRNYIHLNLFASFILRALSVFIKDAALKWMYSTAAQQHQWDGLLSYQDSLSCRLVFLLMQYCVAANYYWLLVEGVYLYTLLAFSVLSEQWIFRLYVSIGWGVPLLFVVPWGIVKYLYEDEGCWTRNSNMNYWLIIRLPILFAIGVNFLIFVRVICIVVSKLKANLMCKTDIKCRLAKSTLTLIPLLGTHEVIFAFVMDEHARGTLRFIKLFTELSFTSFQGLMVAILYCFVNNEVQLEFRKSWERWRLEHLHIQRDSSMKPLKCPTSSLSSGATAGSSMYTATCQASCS

Row | SMILES | EC50 [1, 4] | EC50 [1, 5] | EC50 [1, 6] | EC50 [2, 7] | EC50 [2, 8] | EC50 [3, 9] | EC50 [3, 10] | EC50 (GLP-1R (INS1e assay); [11]) | EC50 (GLP-1R (INS1e assay); [12]) | EC50 (GLP-1R (INS1e assay); [13]) | EC50 [2, 14] | EC50 [2, 15] | EC50 [3, 16] | EC50 [3, 17]
1 | CCCCCCCCCCCC(=O)NCCOCCOCC(=O)NCCOCCOCC(=O)NCCOCCOCC(=O)NCCCC[C@H](NC(=O)[C@H](C)NC(=O)[C@H](C)NC(=O)[C@H](CCC(=O)O)NC(=O)CNC(=O)[C@H](CCC(=O)O)NC(=O)[C@H](CC(C)C)NC(=O)[C@](C)(Cc1ccccc1)NC(=O)[C@H](CO)NC(=O)[C@](C)(CO)NC(=O)[C@@H](NC(=O)[C@H](CC(=O)O)NC(=O)[C@H](CO)NC(=O)[C@@H](NC(=O)[C@](C)(Cc1ccccc1)NC(=O)[C@H](CO)NC(=O)CNC(=O)[C@H](CCC(=O)O)NC(=O)C(C)(C)NC(=O)[C@@H](N)Cc1c[nH]cn1)[C@@H](C)O)C(C)C)C(=O)N[C@@H](CCC(=O)O)C(=O)N[C@@](C)(Cc1ccccc1)C(=O)N[C@H](C(=O)N[C@@H](C)C(=O)N[C@@](C)(Cc1ccccc1)C(=O)N[C@H](C(=O)N[C@H](C(=O)N[C@@](C)(CCCCN)C(=O)NCC(=O)NCC(N)=O)C(C)C)C(C)C)[C@@H](C)CC [compound 136] | 3.5 pM | 2.5 pM | 3 pM | ≥ 26 nM | ≥ 26 nM | ≥ 26 nM | ≥ 26 nM | 37 pM | 52.6 pM | 21.5 pM | – | – | – | –
2 | CC[C@H](C)[C@H](NC(=O)[C@](C)(Cc1ccccc1)NC(=O)[C@H](CCC(=O)O)NC(=O)[C@H](CCCCNC(=O)CC[C@H](NC(=O)CCCCCCCCCCCOc1ccc(C(=O)O)cc1)C(=O)O)NC(=O)[C@H](C)NC(=O)[C@H](C)NC(=O)[C@H](CCC(=O)O)NC(=O)CNC(=O)[C@H](CCC(=O)O)NC(=O)[C@H](CC(C)C)NC(=O)[C@](C)(Cc1ccccc1)NC(=O)[C@H](CO)NC(=O)[C@](C)(CO)NC(=O)[C@@H](NC(=O)[C@H](CC(=O)O)NC(=O)[C@H](CO)NC(=O)[C@@H](NC(=O)[C@](C)(Cc1ccccc1)NC(=O)[C@H](CO)NC(=O)CNC(=O)[C@H](CCC(=O)O)NC(=O)C(C)(C)NC(=O)[C@@H](N)Cc1c[nH]cn1)[C@@H](C)O)C(C)C)C(=O)N[C@@H](C)C(=O)N[C@@](C)(Cc1ccccc1)C(=O)N[C@H](C(=O)N[C@H](C(=O)N[C@@](C)(CCCCN)C(=O)NCC(=O)NCC(N)=O)C(C)C)C(C)C [compound 137] | 6.6 pM | 3.8 pM | 5.2 pM | – | – | – | – | 50 pM | 63.7 pM | 36.2 pM | ≥ 27 nM | ≥ 27 nM | ≥ 27 nM | ≥ 27 nM
3 | CC[C@H](C)[C@H](NC(=O)[C@](C)(Cc1ccccc1)NC(=O)[C@H](CCC(=O)O)NC(=O)[C@H](CCCCNC(=O)CCCCCNC(=O)CCCCCCCCCCCOc1ccc(C(=O)O)cc1)NC(=O)[C@H](C)NC(=O)[C@H](C)NC(=O)[C@H](CCC(=O)O)NC(=O)CNC(=O)[C@H](CCC(=O)O)NC(=O)[C@H](CC(C)C)NC(=O)[C@](C)(Cc1ccccc1)NC(=O)[C@H](CO)NC(=O)[C@](C)(CO)NC(=O)[C@@H](NC(=O)[C@H](CC(=O)O)NC(=O)[C@H](CO)NC(=O)[C@@H](NC(=O)[C@](C)(Cc1ccccc1)NC(=O)[C@H](CO)NC(=O)CNC(=O)[C@H](CCC(=O)O)NC(=O)C(C)(C)NC(=O)[C@@H](N)Cc1c[nH]cn1)[C@@H](C)O)C(C)C)C(=O)N[C@@H](C)C(=O)N[C@@](C)(Cc1ccccc1)C(=O)N[C@H](C(=O)N[C@H](C(=O)N[C@@](C)(CCCCN)C(=O)NCC(=O)NCC(N)=O)C(C)C)C(C)C [compound 140] | 5.9 pM | 3.9 pM | 4.9 pM | – | – | – | – | 30 pM | 43.2 pM | 16.7 pM | ≥ 27 nM | ≥ 27 nM | ≥ 27 nM | ≥ 27 nM
4 | CC[C@H](C)[C@H](NC(=O)[C@](C)(Cc1ccccc1)NC(=O)[C@H](CCC(=O)O)NC(=O)[C@H](CCCCNC(=O)CCCCCNC(=O)CCCCCNC(=O)CCCCCCCCCCCOc1ccc(C(=O)O)cc1)NC(=O)[C@H](C)NC(=O)[C@H](C)NC(=O)[C@H](CCC(=O)O)NC(=O)CNC(=O)[C@H](CCC(=O)O)NC(=O)[C@H](CC(C)C)NC(=O)[C@](C)(Cc1ccccc1)NC(=O)[C@H](CO)NC(=O)[C@](C)(CO)NC(=O)[C@@H](NC(=O)[C@H](CC(=O)O)NC(=O)[C@H](CO)NC(=O)[C@@H](NC(=O)[C@](C)(Cc1ccccc1)NC(=O)[C@H](CO)NC(=O)CNC(=O)[C@H](CCC(=O)O)NC(=O)C(C)(C)NC(=O)[C@@H](N)Cc1c[nH]cn1)[C@@H](C)O)C(C)C)C(=O)N[C@@H](C)C(=O)N[C@@](C)(Cc1ccccc1)C(=O)N[C@H](C(=O)N[C@H](C(=O)N[C@@](C)(CCCCN)C(=O)NCC(=O)NCC(N)=O)C(C)C)C(C)C [compound 141] | 8.7 pM | 5 pM | 6.9 pM | – | – | – | – | 41 pM | 44.7 pM | 36.7 pM | ≥ 27 nM | ≥ 27 nM | ≥ 27 nM | ≥ 27 nM
5 | CC[C@H](C)[C@H](NC(=O)[C@](C)(Cc1ccccc1)NC(=O)[C@H](CCC(=O)O)NC(=O)[C@H](CCCCNC(=O)COCCOCCNC(=O)CCCCCCCCCCCOc1ccc(C(=O)O)cc1)NC(=O)[C@H](C)NC(=O)[C@H](C)NC(=O)[C@H](CCC(=O)O)NC(=O)CNC(=O)[C@H](CCC(=O)O)NC(=O)[C@H](CC(C)C)NC(=O)[C@](C)(Cc1ccccc1)NC(=O)[C@H](CO)NC(=O)[C@](C)(CO)NC(=O)[C@@H](NC(=O)[C@H](CC(=O)O)NC(=O)[C@H](CO)NC(=O)[C@@H](NC(=O)[C@](C)(Cc1ccccc1)NC(=O)[C@H](CO)NC(=O)CNC(=O)[C@H](CCC(=O)O)NC(=O)C(C)(C)NC(=O)[C@@H](N)Cc1c[nH]cn1)[C@@H](C)O)C(C)C)C(=O)N[C@@H](C)C(=O)N[C@@](C)(Cc1ccccc1)C(=O)N[C@H](C(=O)N[C@H](C(=O)N[C@@](C)(CCCCN)C(=O)NCC(=O)NCC(N)=O)C(C)C)C(C)C [compound 143] | 12 pM | 5.2 pM | 8.6 pM | – | – | – | – | 34 pM | 45.1 pM | 22.7 pM | ≥ 27 nM | ≥ 27 nM | ≥ 27 nM | ≥ 27 nM
6 | CCCCCCCCCCCCCCCCCC(=O)NCCOCCOCC(=O)NCCOCCOCC(=O)NCCCC[C@H](NC(=O)[C@H](C)NC(=O)[C@H](C)NC(=O)[C@H](CCC(=O)O)NC(=O)CNC(=O)[C@H](CCC(=O)O)NC(=O)[C@H](CC(C)C)NC(=O)[C@](C)(Cc1ccccc1)NC(=O)[C@H](CO)NC(=O)[C@](C)(CO)NC(=O)[C@@H](NC(=O)[C@H](CC(=O)O)NC(=O)[C@H](CO)NC(=O)[C@@H](NC(=O)[C@](C)(Cc1ccccc1)NC(=O)[C@H](CO)NC(=O)CNC(=O)[C@H](CCC(=O)O)NC(=O)C(C)(C)NC(=O)[C@@H](N)Cc1c[nH]cn1)[C@@H](C)O)C(C)C)C(=O)N[C@@H](CCC(=O)O)C(=O)N[C@@](C)(Cc1ccccc1)C(=O)N[C@H](C(=O)N[C@@H](C)C(=O)N[C@@](C)(Cc1ccccc1)C(=O)N[C@H](C(=O)N[C@H](C(=O)N[C@@](C)(CCCCN)C(=O)NCC(=O)NCC(N)=O)C(C)C)C(C)C)[C@@H](C)CC [compound 153] | 7.9 pM | 5 pM | 6.4 pM | ≥ 27 nM | ≥ 27 nM | ≥ 27 nM | ≥ 27 nM | 58 pM | 55 pM | 61.2 pM | – | – | – | –

From patent US10414811B2, “Protease-resistant lipidated GLP-1 analogs” (MEDIMMUNE LIMITED, priority 2015, dated 2019)
